pIC50: −log10 of the molar value.
Key:
PDE(IV) = assay: Phosphodiesterase IV (PDE (IV)) Inhibitory Activity; format: biochemical; settings: rat brain PDE(IV); 3H-cAMP 1 μM; 37° C., 10 minutes; read-out: PDE(IV) inhibition IC50
Procedure: Phosphodiesterase IV (PDE (IV)) Inhibitory Activity
Purification of PDE (IV) and measurement of its activity were carried out by partially modifying the method of Saeki et al. (Biochem. Pharmacol., Vol. 46, 833-839, 1993). That is, PDE(IV) was purified by centrifuging rat brain homogenate at 105,000×g, applying the resulting supernatant to a Q-Sepharose column and then eluting the protein with a density gradient of 0 to 0.5 M NaCl.
Activity of PDE(IV) was measured by the following two step procedure. Using 3H-cAMP (1 μM in final concentration) as the substrate, the reaction was carried out at 37° C. for 10 minutes in a reaction solution containing tris(hydroxyl)aminomethane (50 mM, pH B8.0), EGTA (0.1 mM) and MgCl2 (0.1 mM) and then the reaction was stopped by incubating the reaction solution at 95° C. for 5 minutes. The thus formed 5'-AMP was hydrolyzed with 5'-nucleotidase, and AG1 X-8 resin was added thereto to effect adsorption of unreacted CAMP. After centrifugation, 3H-adenosinewas counted using a scintillation counter.

[1] = tested on: Mouse ear edema reaction (egg albumin-induced); assay: Ear Edema Reaction Inhibitory Activity in Mice; format: in vivo, BALB/c mice; settings: oral, 1 hour before induction, ear thickness 1 hour after induction
Procedure: Ear Edema Reaction Inhibitory Activity in Mice [Test Inflammation]
This test was test was carried out in accordance with the method of Sawada et al. (Clin. Exp. Allergy, Vol. 27, pp. 225-231, 1996). Each of BALB/c mice was immunized by the intraperitoneal injection of 1 μg of egg albumin which had been adsorbed to 1 mg of ALUM. After 14 days of the immunization, ear edema reaction was induced by intracutaneous injection of 1 μg of egg albumin into mouse earlobe. Ear edema (×10^2 mm) was calculated by measuring thickness of the ear before and 1 hour after the induction with a dial thickness gage (Peacok). Each of the drugs to be tested (compounds 1 and 2) was suspended in 0.5% hydropropylmethylcellulose (HPMC) solution and orally administered 1 hour before the reaction induction. Ear edema caused by the antigen was calculated by subtracting ear edema after respective time of induction in the case of the same treatment of normal mice, and the ear edema inhibition ratio (%) of the drugs to be tested was calculated based on the solvent-administered (control) group.

[2] = tested on: Airway reactivity acceleration (antigen-induced); assay: Antigen-Induced Airway Reactivity Acceleration Inhibitory Activity in Mice [Test on Chronic Inflammation]; format: in vivo, BALB/c mice; settings: oral, once a day for 10 days, acetylcholine 30 μg/animal i.v.
Procedure: Antigen-Induced Airway Reactivity Acceleration Inhibitory Activity in Mice [Test on Chronic Inflammation]
The model for this test was prepared out in accordance with the method of Nagai et al. (Life Sciences, Vol. 54, pp. 471-475, 1994). Each of BALB/c mice was immunized by the intraperitoneal injection of 1 μg of egg albumin which had been adsorbed to 1 mg of ALUM. After 14 days of the immunization, each animal was exposed to 1% egg albumin solution using an ultrasonic nebulizer, and this treatment was repeated three times at 3 day intervals. After 24 hours of the final exposure, the airway contraction reaction against intravenously injected acetylcholine (30 μg/animal) was measured as overflow volume (×0.01 ml) by the modified method of Konzett and Rossler under pentobarbital anesthesia. Each of the drugs to be tested (compounds 1 and 2) was suspended in 0.5% HPMC solution and orally administered once a day for a total of 10 days starting from the day before the antigen exposure until the day of final exposure. Accelerated quantity of the airway contraction reaction caused by the antigen exposure was calculated by subtracting the contraction reaction against intravenously injected acetylcholine in the case of the same treatment of normal mice, and the airway reactivity acceleration inhibition ratio (%) of the drugs to be tested was calculated based on the solvent-administered (control) group.

[3] = tested on: IL-4 production by CD4^+ T cells; assay: Interleukin-4 (IL-4) Production Inhibitory Activity; format: cell-based; settings: 24 h; mouse spleen CD4^+ T cells; IL-4 in supernatant by ELISA after 1 day; read-out: IL-4 production inhibition IC50
Procedure: Interleukin-4 (IL-4) Production Inhibitory Activity
This test was carried out in accordance with the method of Shelby et al. (J. Allergy Clin. Immunol., Vol. 100, No. 4, 511-519 (1997)). That is, CD4^+ T cells were purified from mouse spleen cells and suspended in 10% FCS-containing RPMI 1640 culture medium, and the cell suspension was inoculated into wells of a 24 well culture plate, which had been coated with anti-rat IgG, at a density of 3×10^6 cells per well. Anti-mouse CD3 antibody and anti-mouse CD28 antibody were added thereto, and the cells were cultured at 37° C. for 3 days in an atmosphere of 5% CO2. The thus grown cells were recovered, washed three times with HBSS (Hank's balanced salt solution) and then suspended in 10% FCS-containing RPMI 1640 culture medium. The cell suspension was inoculated into wells of a 24 well culture plate at a density of 1×10^6 cells per well, mixed with IL-2 and cultured for additional 3 days. The resulting cells were recovered, washed three times with HBSS and then suspended in 10% FCS-containing RPMI 1640 culture medium. The cell suspension was inoculated into wells of a 24 well culture plate, which had been coated with anti-rat IgG, at a density of 2×10^6 cells per well, anti-mouse CD3 antibody and anti-mouse CD28 antibody were added thereto, and the cells were again cultured for 1 day. The culture supernatant was recovered from each well to measure the amount of produced IL-4 by ELISA. Each drug to be tested was treated at the time of the second addition of anti-mouse CD3 antibody and anti-mouse CD28 antibody to calculate its inhibition percentage based on the control IL-4 production by the addition of the solvent alone, and IC50 (50% inhibition concentration) of each drug to be tested was calculated based on the regression line.

IL-4 production = settings: in words, background art; cited from earlier work

pIC50 (PDE(IV))	pIC50 [3]	SMILES	Mouse ear edema reaction inhibition ([1]; 30 mg/kg) [%]	Airway reactivity acceleration inhibition ([2]; 30 mg/kg) [%]	other results
7.70	5.37	COc1ccc(-c2nc3ccc(-n4cncn4)cc3[nH]2)cc1OC(C)C [Compound 1, 2-(3-isopropoxy-4-methoxyphenyl)-5-(1,2,4-triazol-1-yl)benzimidazole]	60	–	Airway reactivity acceleration inhibition ([2]; 10 mg/kg): 58%
7.29	5.29	COc1ccc(-c2nc3cc(-n4cncn4)ccc3[nH]2)cc1OC/C=C/c1ccccc1 [Compound 18]	–	–	–
6.27	5.21	COc1ccc(-c2nc3ccc(-n4cncn4)cc3[nH]2)cc1OC1C=CCCC1 (stereo not drawn) [Compound 14, 2-[3-(2-cyclohexenyloxy)-4-methoxyphenyl]-5-(1,2,4-triazol-1-yl)benzimidazole]	–	–	–
5.80	5.26	COc1ccc(-c2nc3cc(-n4cncn4)ccc3[nH]2)cc1OCC1CC1 [Compound 11]	–	–	–
–	–	COc1ccc(-c2nc3cc(C(=O)O)ccc3[nH]2)cc1OC1CCCC1 [Control compound 4]	–	-17	Mouse ear edema reaction inhibition ([1]; 100 mg/kg): 0%
–	–	COc1ccc(-c2nc3ccc(-n4cncn4)cc3[nH]2)cc1OC1CCCC1 [Compound 2, 2-(3-cyclopentyloxy-4-methoxyphenyl)-5-(1,2,4-triazol-1-yl)benzimidazole]	78	47	–
6.14	5.55	COc1ccc(-c2nc3cc(-n4cncn4)ccc3[nH]2)cc1OC1C=CCCCC1 (stereo not drawn) [Compound 25]	–	–	–
–	–	COc1ccc(-c2nc3cc(-n4cncn4)ccc3[nH]2)c(OC)c1 [Control compound 2]	17	30	–
–	–	COc1ccc(-c2nc3cc(C(=O)O)ccc3[nH]2)cc1OC1Cc2ccccc2C1 [Control compound 5]	–	-3	Mouse ear edema reaction inhibition ([1]; 100 mg/kg): 0%
–	–	COc1ccc(/C(C)=N/OC(N)=O)cc1OC1CCCC1 [PDA-641]	–	–	IL-4 production inhibitory activity (IL-4 production): weak

Source: US6248768A, “Benzimidazole derivatives and pharmacologically acceptable salts thereof” (Taiho Pharmaceutical Co., Ltd., priority 1997, dated 2001)
